Legend:
endothelial cells = conditions: from Mendel et al. 2000 (SU5416) and Laird et al. 2000 (SU6668); read-out: predetermined IC50 concentration; cited from earlier work
HUVEC [1] = assay: HUVEC tubulogenesis on MATRIGEL; type: cell-based, human; conditions: three hours after cell transfer
Description: Functional tests were also used to characterize the differentiation status of VEC cultured in different growth environments in vitro, as previously described. (Hewett et al., 1993, In Vitro Cell Dev. Biol. 29A: 823-830; Benelli et al., 1999, Int. J. Biol Markers 14: 243-246). MATRIGEL, a three-dimensional support matrix that is composed of solubilized membranes extracted from Engelbreth-Holm-Swarm (“EHS”) mouse sarcoma cells, was used because of the ability of mammalian VEC derived from different tissue sources to form capillary-like tubules and generate branched and forked networks in this media. The major components of this matrix are ECM proteins, such as laminin, collagen IV, entactin, and heparan sulphate proteoglycan, as well as growth factors, such as bFGF and EGF. MATRIGEL has previously been used to induce and maintain differentiation of endothelial, muscle, and neuronal cells, and for the development of three-dimensional matrix and cell invasion systems in vitro. (Gargett et al., 2000, Hum. Reprod. 15:293-301; Voura et al., 1998, Microsc. Res. Tech. 43: 265-275).
VEC were cultured both on BIOCOAT MATRIGEL matrix-coated tissue culture flasks (Becton Dickinson), and on MATRIGEL matrix prepared from pre-frozen gels that were thawed, kept at +4° C. before use and solidified at +37° C. for 3-16 hours before testing. The optimal time to detect the formation of tubules and capillary-like networks on MATRIGEL was from 3-6 hours. (Gargett et al., 2000, Hum. Reprod. 15:293-301; Voura et al., 1998, Microsc. Res. Tech. 43: 265-275). […] No viable VEC were found in MATRIGEL cultures after 48 hours.

[2] = test system: VEC derived from fresh tumor specimens; assay: Microarray analysis of drug-resistant versus drug-sensitive tumor-derived VEC sorted by Annexin V; type: cell-based, human; conditions: 0.1 μM docetaxel, 24 hours
Method: Anti-angiogenesis agents were screened using highly purified populations of endothelial cells derived from fresh tumor specimens. 2×10^7 VEC that were sorted for the expression of CD31 and CD105 endothelial markers were exposed to 0.1 μM docetaxel or 50 μM BSO, a proprietary drug. […] After 24 hours of drug exposure in cytophobic plates, VEC were sorted under sterile conditions using the above Annexin V-flow cytometry protocol. To ensure the purity of sorted VEC, the sorted populations were reanalyzed by flow cytometry for Annexin V and PI staining, as shown in FIG. 17. The purity of the sorted VEC populations varied between 97.3% and 99.1%. Total RNA was isolated from both resistant (Annexin V−/PI−) and sensitive (Annexin V+/PI−) populations, and cDNA probes were hybridized with Research Genetics GeneFilters© microarrays containing over 40,000 known human gene sequences. In order to compare the microarray results for the drug-resistant sample to the drug-sensitive sample, FIG. 18 is a two-dimensional scatter plot constructed of intensity values from the microarrays normalized by converting to the fraction of total intensity and then log transformed, which was used to compare the microarray results for the resistant and sensitive sample. Diagonal lines were utilized that separated the genes that have more than a 2-fold difference in expression level.

HUVEC [3] = assay: Annexin V staining test for endothelial cells undergoing apoptosis (Annexin V-FITC/PI flow cytometry); type: cell-based, human; conditions: HUVEC on collagen I, 0.0011 μM mM docetaxel, FIG. 6
Description: Altered cell attachment and loss of membrane integrity are among the earliest morphological features of programmed cell death. Annexin V, a 35-36 kDa Ca^2+-dependent phospholipid-binding protein, has a high affinity for the membrane phospholipid phosphatidylserine, normally located on the inner leaflet of the cell membrane (Raynal et al., 1994, Biochem. et Biophys. Acta. 1197:63-93). In cells undergoing apoptosis, however, phosphatidylserine is translocated to the outer leaflet of the plasma membrane and can be detected by Annexin V labeled with fluorescent dyes, such as FITC. To distinguish truly apoptotic cells from necrotic cells, Annexin V was used in combination with PI exclusion. In this assay, HUVEC undergoing apoptosis are Annexin V-positive, PI negative, while necrotic cells are Annexin V-positive, PI-positive.
As an example, HUVEC cells were cultured on collagen I and treated with 0.0011 μM mM docetaxel and then stained with both Annexin V and PI. Annexin V binding and PI staining of nuclei were documented for the same cell population using the PharMingen Annexin V flow cytometry assay and two-color immunofluorescence on live HUVEC monolayers. Staining with Annexin V-FITC was visible on the membrane as green fluorescence, and PI staining was visible in the nucleus as red fluorescence. […] In a separate experiment, HUVEC cells were transferred into Ultra Low Attachment 24-well plates (Corning, Inc., Corning N.Y.) covered with a layer of hydrogel that is hydrophilic and neutrally charged. The hydrogel surface inhibits non-specific immobilization, and therefore subsequent cell attachment, because proteins and other biomolecules passively adsorb to surfaces through hydrophobic and ionic interactions. Because of the lack of appropriate ECM providing anti-apoptotic signals, HUVEC undergo rapid apoptosis under these culture conditions. For example, 24 hours after their transfer into Ultra Low Attachment plates, 61% of HUVEC cells were undergoing an (Annexin V-positive, PI-negative) apoptotic process (shown in FIG. 7).

HUVEC [4] = assay: HUVEC morphology by phase contrast microscopy; type: cell-based, human; conditions: HUVEC on collagen I, 48 hours; 10 μM or 1 μM docetaxel, 10 μM thalidomide, FIG. 11
Method: (§1) HUVEC were cultured for 48 hours on collagen I and treated with either 10 μM docetaxel, 1 μM docetaxel, or 10 μM thalidomide. The effect on cell morphology was observed by phase contrast microscopy. In addition, apoptotic HUVEC cultured on collagen in the presence of 10 μM docetaxel were stained with AnnexinV-FITC (green fluorescence) and PI (red fluorescence) and visualized with immunofluorescent photomicrography. […] An atypical pattern of Dil-ac-LDL accumulation in drug-treated cells was observed under high magnification.

HUVEC [5] = assay: Dil-ac-LDL uptake by HUVEC; type: cell-based, human; conditions: HUVEC on collagen I, 48 hours, 10 μM docetaxel, FIG. 12
Description: The uptake of Dil-ac-LDL (Biomedical Technologies, Inc., Stoughton Mass.) was utilized to identify and characterize differentiated VEC using fluorescent microscopy on live cell monolayers. After uptake, Dil-ac-LDL is degraded by lysosomal enzymes in endothelial cells, with the Dil fluorescent probe accumulating in the intracellular membrane. (Pitas et al., 1985, J. Cell. Biol. 100:103-117). Discrimination using this system is high, because no other cell type, with the exception of macrophages, is labeled to the same degree as VEC (Voura et al, 1998, Microsc. Res. Tech. 43: 265-275; Pitas et al., 1985, J. Cell Biol. 100:103-117), and macrophages can be excluded from the analysis and sorting protocols with CD45 staining. In addition, macrophages can be differentiated from VEC because the […] is more brightly labeled with Dil-ac-LDL.
as §1

HUVEC [6] = assay: APO-DIRECT assay (late apoptosis, DNA breaks); type: cell-based, human; conditions: collagen I, 1 μM docetaxel, 48 hours, FIG. 8
Description: The APO-DIRECT assay (Phoenix Flow Systems, San Diego, Calif.) utilizes single step fluorescent labeling and flow cytometric analysis by taking advantage of the multitude of 3′-hydroxyl termini of DNA present in apoptotic cells. One of the hallmarks of cellular self-destruction by apoptosis is the activation of nucleases that degrade the higher order chromatin structure of the DNA into fragments of 50 to 300 kilobases. These DNA fragments result in the appearance of “DNA laddering” when the DNA is analyzed by agarose gel electrophoresis. (Arends et al., 1990, Am. J. Pathol. 136:593-608). Apoptotic cells were identified by labeling the 3′-hydroxy ends of double- and single-stranded DNA breaks with fluorescent-tagged deoxyuridine triphosphate nucleotides (F-dUTP) using the enzyme deoxynucleotidyl transferase (TdT). […] The APO-DIRECT assay identified cells undergoing apoptosis at a later stage of programmed cell death than assays based on Annexin V binding.
In these experiments, HUVEC were incubated on collagen I for 48 hours in the presence of 1 μM docetaxel. The cells were fixed in paraformaldehyde and stored at −20° C. until use. […] The gating display was created according to Phoenix Flow protocol using Linear Red Fluorescence (DNA) on the X-axis and Log green Fluorescence (d-UTP) on the Y-axis. […]

[7] = RESISTANT, resistant versus sensitive VEC
[8] = SENSITIVE, resistant versus sensitive VEC

In the case of Cc1cc(C)c(/C=C2\C(=O)Nc3ccccc32)[nH]1 [SU5416], the IC50 (endothelial cells) is listed as 1000 nM.
In the case of Cc1[nH]c(/C=C2\C(=O)Nc3ccccc32)c(C)c1CCC(=O)O [SU6668], the IC50 (endothelial cells) is listed as 340 nM.
For CC(=O)O[C@@]12CO[C@@H]1C[C@H](O)[C@@]1(C)C(=O)[C@H](O)C3=C(C)[C@@H](OC(=O)[C@H](O)[C@@H](NC(=O)OC(C)(C)C)c4ccccc4)C[C@@](O)([C@@H](OC(=O)c4ccccc4)[C@H]21)C3(C)C [docetaxel], the “tubulogenesis on MATRIGEL” value (HUVEC [1]; 10 μM, FIG. 13) was “complete absence of VEC-like tubules”, the “tubulogenesis and capillary-like network formation on MATRIGEL” value (HUVEC [1]; lower doses (1, 0.1, 0.01, 0.001 μM)) was “inhibited tubulogenesis and capillary-like network formation” and the “Ratio, Human HLK1 mRNA, complete cds” value [2, 7] was 3.6. For the same molecule, the “Ratio, Interferon regulatory factor 5” value [2, 7] was 4.4, the “Ratio, Keratin, type I cytoskeletal 14” value [2, 7] was 4 and the “Ratio, Small proline-rich protein 1B (cornifin)” value [2, 7] was 3.6. The “Ratio, Tuberin” value [2, 7] was 3.2, the “Ratio, Fibrinogen beta-chain precursor” value ([2]; SENSITIVE) was 4.9 and the “Ratio, Human TWIK-related acid-sensitive K + channel gene” value ([2]; SENSITIVE) was 5.9. The “Ratio, Human metallothionein (MT)I-F gene” value [2, 8] was 6.2, the “Ratio, Human mucosal addressin cell adhesion molecule” value [2, 8] was 9.5 and the “Ratio, Human putative fatty acid desaturase” value [2, 8] was 5.2. For the same molecule, the “cells dead due to either apoptosis or necrosis” value (HUVEC [3]) was 16%, the “cells intact (Annexin V-negative, PI-negative)” value (HUVEC [3]) was 80% and the cells undergoing apoptosis (HUVEC [3]) was 3.5%. The “effect on cell morphology” value (HUVEC [4]) was “rounded and partially detached HUVEC”, the Dil-ac-LDL uptake (HUVEC [5]) was “very few docetaxel-treated HUVEC took up DIL-as-LDL” and the “HUVEC that had undergone apoptosis” value (HUVEC [6]) was 73%.
For O=C1CCC(N2C(=O)c3ccccc3C2=O)C(=O)N1 (stereo not shown) [thalidomide], the “effects on HUVEC tubulogenesis on MATRIGEL” value (HUVEC [1]; 10, 1, 0.1, 0.01 and 0.001 μM) was “No effects” and the “effect on cell morphology” value (HUVEC [4]) was “no effect on HUVEC morphology”.
